Conditions: Liquid; for mass density: Vibrating tube method; for speed of sound: Frequency=5 MHz, Single path-length method

CCC(=O)[O-].[NH3+]CCO [2-hydroxyethan-1-aminium propionate]
Conditions | mass density [kg/m3] | speed of sound [m/s]
298.08 K, 10000 kPa | 1124.9 | –
298.1 K, 30000 kPa | 1131.1 | –
298.11 K, 15000 kPa | 1127.6 | –
298.13 K, 35000 kPa | 1132.5 | –
298.15 K, 20000 kPa | 1128.2 | –
298.15 K, 25000 kPa | 1129.4 | –
298.16 K, 100 kPa | 1121.1 | –
303.03 K, 30000 kPa | 1126.3 | –
303.07 K, 25000 kPa | 1124.9 | –
303.07 K, 35000 kPa | 1127.2 | –
303.09 K, 10000 kPa | 1121 | –
303.09 K, 15000 kPa | 1121.8 | –
303.1 K, 20000 kPa | 1123.3 | –
303.15 K, 100 kPa | 1116 | 1554.7
303.15 K, 1000 kPa | – | 1558.7
303.15 K, 2000 kPa | – | 1562.7
303.15 K, 3000 kPa | – | 1566.7
303.15 K, 4000 kPa | – | 1570.7
303.15 K, 5000 kPa | – | 1574.7
303.15 K, 6000 kPa | – | 1578.8
303.15 K, 7000 kPa | – | 1582.9
303.15 K, 8000 kPa | – | 1587
303.15 K, 9000 kPa | – | 1591.1
303.15 K, 10000 kPa | – | 1595.2
303.15 K, 11000 kPa | – | 1599.4
303.15 K, 12000 kPa | – | 1602.1
303.15 K, 13000 kPa | – | 1606.3
303.15 K, 14000 kPa | – | 1610.5
303.15 K, 15000 kPa | – | 1613.3
303.15 K, 16000 kPa | – | 1617.6
303.15 K, 17000 kPa | – | 1620.4
303.15 K, 18000 kPa | – | 1624.6
303.15 K, 19000 kPa | – | 1628.9
303.15 K, 20000 kPa | – | 1633.2
313.14 K, 100 kPa | 1105.3 | –
313.15 K, 100 kPa | – | 1526.8
313.15 K, 1000 kPa | – | 1531.9
313.15 K, 2000 kPa | – | 1535.7
313.15 K, 3000 kPa | – | 1539.5
313.15 K, 4000 kPa | – | 1542.1
313.15 K, 5000 kPa | – | 1546
313.15 K, 6000 kPa | – | 1549.9
313.15 K, 7000 kPa | – | 1553.8
313.15 K, 8000 kPa | – | 1557.8
313.15 K, 9000 kPa | – | 1561.7
313.15 K, 10000 kPa | – | 1565.7
313.15 K, 11000 kPa | – | 1569.7
313.15 K, 12000 kPa | – | 1573.7
313.15 K, 13000 kPa | – | 1577.7
313.15 K, 14000 kPa | – | 1581.7
313.15 K, 15000 kPa | – | 1585.8
313.15 K, 16000 kPa | – | 1589.9
313.15 K, 17000 kPa | – | 1594
313.15 K, 18000 kPa | – | 1598.1
313.15 K, 19000 kPa | – | 1602.2
313.15 K, 20000 kPa | – | 1606.4
313.16 K, 15000 kPa | 1111.3 | –
313.17 K, 10000 kPa | 1110.2 | –
313.17 K, 35000 kPa | 1117.8 | –
313.18 K, 20000 kPa | 1113.3 | –
313.18 K, 30000 kPa | 1116.2 | –
313.19 K, 25000 kPa | 1114.8 | –
323.09 K, 10000 kPa | 1098.3 | –
323.1 K, 100 kPa | 1093 | –
323.1 K, 25000 kPa | 1103.9 | –
323.12 K, 30000 kPa | 1105.5 | –
323.14 K, 15000 kPa | 1099.7 | –
323.14 K, 20000 kPa | 1102 | –
323.14 K, 35000 kPa | 1107.3 | –
323.15 K, 100 kPa | – | 1506.1
323.15 K, 1000 kPa | – | 1509.8
323.15 K, 2000 kPa | – | 1513.6
323.15 K, 3000 kPa | – | 1517.3
323.15 K, 4000 kPa | – | 1521.1
323.15 K, 5000 kPa | – | 1524.9
323.15 K, 6000 kPa | – | 1528.7
323.15 K, 7000 kPa | – | 1533.8
323.15 K, 8000 kPa | – | 1537.6
323.15 K, 9000 kPa | – | 1541.5
323.15 K, 10000 kPa | – | 1545.4
323.15 K, 11000 kPa | – | 1549.2
323.15 K, 12000 kPa | – | 1553.2
323.15 K, 13000 kPa | – | 1558.4
